Laboratory results from PMC11945486, “TAS1R2/TAS1R3 Single-Nucleotide Polymorphisms Affect Sweet Taste Receptor Activation by Sweeteners: The SWEET Project” (Nutrients, 2025).
One block for each molecule: values may come before it. No end group written: not given here.

Biological target: T1, human TAS1R2-I595T/TAS1R3-WT (Homo sapiens, UniProt Q7RTX0+Q8TE23, I595T)
T1 construct: expressed in transfected cells; host or cells: HEK293T-Gα16gust44
T1 sequence (Q8TE23 20-839 I595T): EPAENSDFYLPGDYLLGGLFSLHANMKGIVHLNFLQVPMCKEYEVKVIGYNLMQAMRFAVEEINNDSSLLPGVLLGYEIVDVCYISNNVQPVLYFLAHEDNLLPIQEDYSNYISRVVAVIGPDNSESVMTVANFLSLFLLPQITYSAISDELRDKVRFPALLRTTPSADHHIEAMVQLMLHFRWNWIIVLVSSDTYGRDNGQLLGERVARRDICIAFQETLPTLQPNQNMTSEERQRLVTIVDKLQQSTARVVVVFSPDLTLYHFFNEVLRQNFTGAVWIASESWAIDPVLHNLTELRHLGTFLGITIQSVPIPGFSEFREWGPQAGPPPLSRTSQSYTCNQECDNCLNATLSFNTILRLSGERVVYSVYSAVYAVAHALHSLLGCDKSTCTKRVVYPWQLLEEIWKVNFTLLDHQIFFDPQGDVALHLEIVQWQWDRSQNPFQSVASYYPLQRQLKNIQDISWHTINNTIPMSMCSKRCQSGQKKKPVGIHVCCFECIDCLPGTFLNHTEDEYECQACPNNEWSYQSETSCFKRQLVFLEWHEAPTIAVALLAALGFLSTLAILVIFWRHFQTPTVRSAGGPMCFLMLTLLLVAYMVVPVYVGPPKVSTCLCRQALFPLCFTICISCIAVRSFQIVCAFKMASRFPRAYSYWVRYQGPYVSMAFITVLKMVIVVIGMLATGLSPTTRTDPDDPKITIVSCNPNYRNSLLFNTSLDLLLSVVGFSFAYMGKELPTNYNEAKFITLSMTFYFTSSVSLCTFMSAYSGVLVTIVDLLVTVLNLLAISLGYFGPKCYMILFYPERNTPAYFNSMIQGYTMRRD
T1 sequence (Q7RTX0 21-852): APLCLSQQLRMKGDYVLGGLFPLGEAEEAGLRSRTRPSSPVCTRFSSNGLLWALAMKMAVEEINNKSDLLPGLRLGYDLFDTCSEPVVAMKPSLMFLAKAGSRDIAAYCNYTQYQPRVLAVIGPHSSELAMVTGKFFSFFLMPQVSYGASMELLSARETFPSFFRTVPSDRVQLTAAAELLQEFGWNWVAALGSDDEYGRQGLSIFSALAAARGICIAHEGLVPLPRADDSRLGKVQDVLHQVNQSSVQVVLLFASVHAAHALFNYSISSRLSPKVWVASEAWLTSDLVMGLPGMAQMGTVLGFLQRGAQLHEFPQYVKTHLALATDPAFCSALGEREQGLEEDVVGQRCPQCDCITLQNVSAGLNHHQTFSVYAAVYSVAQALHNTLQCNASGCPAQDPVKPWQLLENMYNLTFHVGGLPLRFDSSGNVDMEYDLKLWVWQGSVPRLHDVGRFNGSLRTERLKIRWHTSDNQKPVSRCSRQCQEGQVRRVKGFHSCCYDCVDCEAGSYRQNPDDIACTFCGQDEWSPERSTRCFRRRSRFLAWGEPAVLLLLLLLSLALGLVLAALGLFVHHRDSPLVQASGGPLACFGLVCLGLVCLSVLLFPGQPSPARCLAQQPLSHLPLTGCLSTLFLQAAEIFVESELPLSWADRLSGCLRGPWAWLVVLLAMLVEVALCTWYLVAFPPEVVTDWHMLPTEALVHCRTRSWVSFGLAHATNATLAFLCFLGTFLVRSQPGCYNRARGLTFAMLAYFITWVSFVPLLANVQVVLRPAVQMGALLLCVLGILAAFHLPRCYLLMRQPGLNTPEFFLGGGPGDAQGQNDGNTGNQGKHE
Test: Calcium mobilisation assay, TAS1R2 variant I595T with TAS1R3-WT
Assay type: cell-based
Settings: "-": no activation; for Max ΔF/F0: maximal signal amplitude
Text: The coding sequences for TAS1R2 and TAS1R3 were commercially synthesised, and the human codon was optimised for expression in human cells. The coding sequences of human TAS1R2 and TAS1R3 were subcloned and inserted into the mammalian expression vectors pcDNA6/myc-HisA and pcDNA4/myc-HisA (Invitrogen; Thermo Fisher Scientific; Illkirch, France) between the EcoRI and NotI restriction sites, generating the plasmids pcDNA6-TAS1R2 and pcDNA4-TAS1R3, respectively. To increase protein expression in mammalian cells, an upstream start codon was used, which was a sequence called MAX, corresponding to the QBI SP163 element also described in pcDNA4-HisMax (Invitrogen; Thermo Fisher Scientific; Illkirch, France). To measure the expression level of the receptor by immunohistochemistry, we used the FLAG sequence ([…]) in the C-terminal position, which encodes the FLAG tag epitope. SNP variants of TAS1R2 and TAS1R3 were constructed based on […], respectively, using site-directed mutagenesis (Genewiz; Leipzig, Germany).
The HEK293T cells were kindly provided by Jay P. Slack (Givaudan Flavors Corporation; Cincinnati, OH, USA). HEK293T cells stably transfected with Gα16gust44 [43, 67] were seeded in poly-D-lysine-coated clear-bottom black 96-well plates (0.35 × 10^5 cells/well) in high-glucose DMEM supplemented with 2 mM GlutaMAX, 10% dialysed foetal bovine serum with penicillin/streptomycin and G418 (400 μg/mL) at 37 °C and 6.3% CO2 in a humidified atmosphere as previously reported. […] As a negative control, HEK293T cells were mock-transfected with the empty expression vector. After a further 24 h of incubation, the HEK293T cells were washed with C1 buffer (130 mM NaCl, 5 mM KCl, 10 mM HEPES pH 7.4 and 2 mM CaCl2). The 96-well plates containing the cells were then stimulated with sweet-tasting compounds. […] Different concentration ranges were tested depending on the sweet compound injected. The Ca^2+ changes were expressed as fractional changes in fluorescent light intensity: ΔF/F = (F − F0)/F0, where F was the fluorescent light intensity at each point, and F0 was the value of emitted fluorescent light prior to stimulus application. To calculate dose–response relationships, the changes in fluorescence upon stimulus application were averaged, mock-subtracted and baseline-corrected. The dose–response data obtained were adjusted using a 4-parameter logistic equation. The half-maximal effective concentrations (EC50 values) and maximal signal amplitudes were calculated using SigmaPlot software (version 15.0) (Systat Software; San Jose, CA, USA).
For in vitro calcium mobilisation assay performed on hTAS1R2-SNPs, hTAS1R3-SNPs and mTAS1R3-I60T, 6 to 7 concentrations were tested for each sweet compound, plus buffer alone. All concentration–receptor combinations were measured in duplicate, and each experiment was repeated at least 4 times (8 wells/concentration). Results were expressed for each concentration as ΔF/F mean ± SEM and represented as dose–response curves.

Molecule: CC1=CC(=O)NS(=O)(=O)O1 [Acesulfame K, acesulfame K]
EC50: 300 ± 139 µM
R1 = Variant EC50/WT EC50: 0.4
Max ΔF/F0: 0.02 ± 0.01

Molecule: O=S(=O)(O)NC1CCCCC1 [Cyclamate, cyclamate]
EC50: 2030 ± 102 µM

Molecule: C[C@H](CC[C@@H](O[C@@H]1O[C@H](CO[C@@H]2O[C@H](CO)[C@@H](O)[C@H](O)[C@H]2O)[C@@H](O)[C@H](O)[C@H]1O[C@@H]1O[C@H](CO)[C@@H](O)[C@H](O)[C@H]1O)C(C)(C)O)[C@H]1CC[C@@]2(C)[C@@H]3CC=C4[C@@H](CC[C@H](O[C@@H]5O[C@H](CO[C@@H]6O[C@H](CO)[C@@H](O)[C@H](O)[C@H]6O)[C@@H](O)[C@H](O)[C@H]5O)C4(C)C)[C@]3(C)[C@H](O)C[C@]12C [Mogroside V, mogroside V]
EC50: 31.4 ± 6 µM
R1 = Variant EC50/WT EC50: 1.8
Max ΔF/F0: 0.27 ± 0.03

Molecule: COc1ccc(CCC(=O)c2c(O)cc(O[C@@H]3O[C@H](CO)[C@@H](O)[C@H](O)[C@H]3O[C@@H]3O[C@@H](C)[C@H](O)[C@@H](O)[C@H]3O)cc2O)cc1O [NHDC, neohesperidin dihydrochalcone]
EC50: 70.3 ± 1.3 µM
R1 = Variant EC50/WT EC50: 0.9
Max ΔF/F0: 0.09 ± 0.01

Molecule: COC(=O)[C@H](Cc1ccccc1)NC(=O)[C@H](CC(=O)O)NCCC(C)(C)C [Neotame]
EC50: 1.27 ± 0.18 µM
R1 = Variant EC50/WT EC50: 1.5
Max ΔF/F0: 0.09 ± 0.01

Results, then the molecule that gave them:

EC50: 53.2 ± 1.6 µM
R1 = Variant EC50/WT EC50: 3.0
Max ΔF/F0: 0.51 ± 0.01
Molecule: C=C(C)[C@@H]1CC=C(/C=N/O)CC1 [Perillartine, perillartine]

EC50: 35.8 ± 4 µM
R1 = Variant EC50/WT EC50: 2.1
Max ΔF/F0: 0.23 ± 0.01
Molecule: C=C1C[C@@]23CC[C@H]4[C@@](C)(CCC[C@@]4(C)C(=O)O[C@@H]4O[C@H](CO)[C@@H](O)[C@H](O[C@@H]5O[C@H](CO)[C@@H](O)[C@H](O)[C@H]5O)[C@H]4O[C@@H]4O[C@H](CO)[C@@H](O)[C@H](O)[C@H]4O)[C@@H]2CC[C@]1(O[C@@H]1O[C@H](CO)[C@@H](O)[C@H](O[C@@H]2O[C@H](CO)[C@@H](O)[C@H](O)[C@H]2O)[C@H]1O[C@@H]1O[C@H](CO)[C@@H](O)[C@H](O)[C@H]1O)C3 [Rebaudioside M, rebaudioside M]

EC50: 108 ± 5 µM
R1 = Variant EC50/WT EC50: 1.2
Max ΔF/F0: 0.08 ± 0.02
Molecule: OC[C@H]1O[C@H](O[C@]2(CCl)O[C@H](CCl)[C@@H](O)[C@@H]2O)[C@H](O)[C@@H](O)[C@H]1Cl [Sucralose]

R1 = Variant EC50/WT EC50: 10.8
Max ΔF/F0: 0.13 ± 0.02
Molecule: brazzein (QDKCKKVYENYPVSKCQLANQCNYDCKLDKHARSGECFYDEKRNLQCICDYCEY; ends and bridges not checked; cysteine pairing not given here; UniProt P56552 1-54, looked up) [sweet-tasting protein obtained by recombinant production using the yeast Pichia pastoris]

R1 = Variant EC50/WT EC50: 3.7
Max ΔF/F0: 0.39 ± 0.01
Molecule: thaumatin

EC50: 27.8 ± 1.4 µM
B1: thaumatin (protein)
chain: ATFEIVNRCSYTVWAAASKGDAALDAGGRQLNSGESWTINVEPGTKGGKIWARTDCYFDDSGSGICKTGDCGGLLRCKRFGRPPTTLAEFSLNQYGKDYIDISNIKGFNVPMDFSPTTRGCRGVRCAADIVGQCPAKLKAPGGGCNDACTVFQTSEYCCTTGKCGPTEYSRFFKRLCPDAFSYVLDKPTTVTCPGSSNYRVTFCPTA
modifications: Eight disulfides
notes: sweet-tasting plant protein, E957
